Reference: patent publication US20240016781A1, “TREATMENT OF KRAS MUTANT CANCERS” (MEI Pharma, Inc., priority 2020, published 2024)
Where two headings read alike, the source gives them in different places.

Columns and labels:
Assay in all cases: 72-hour CellTiter-Glo 2.0 growth inhibition screen (single agent, 9x9 combination dose matrix);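 on Best CI Level: inhibition effect level at which the best CI was calculated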
Assay type in all cases: cell-based
Panc 04.03 = conditions: for EC50 / Response Area: Panc 04.03, Pancreas
Gp2D = conditions: for EC50: GP2d
SW48 = conditions: for EC50: SW48, 72 h
SW837 = conditions: for EC50: SW837, 72 h
NCI-H358 = conditions: for EC50: NCI-H358, 72 h
[1] = Panc 04.03 (KRAS G12D), enhancer + MEI-522 (Voruciclib), 72 h;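 on Best CI Level: inhibition effect level at which the best CI was calculated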
[2] = enhancer combined with MEI-522 (Voruciclib), Panc 04.03 (Pancreas), 72 hours, inhibition data
[3] = Gp2D (KRAS G12D), enhancer + MEI-522 (Voruciclib), 72 h;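 on Best CI Level: inhibition effect level at which the best CI was calculated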
[4] = Gp2D, Colorectal, Additional Single Agent Responses (inhibition, % I), 72 h
[5] = enhancer combined with MEI-522 (Voruciclib), Gp2D (Colorectal), 72 hours, inhibition data
[6] = Homo sapiens, SW48, Colorectal, Additional Single Agent Responses (inhibition, % I), 72 h
[7] = Homo sapiens, SW48, Colorectal, growth inhibition (GI) curve, single agent, 72 h
[8] = SW48 (KRAS WT), enhancer + MEI-522 (Voruciclib), 72 h;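 on Best CI Level: inhibition effect level at which the best CI was calculated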
[9] = enhancer combined with MEI-522 (Voruciclib), SW48 (Colorectal), 72 hours, inhibition data
[10] = Homo sapiens, SW837, Colorectal, Additional Single Agent Responses (inhibition, % I), 72 h
[11] = Homo sapiens, SW837, Colorectal, growth inhibition (GI) curve, single agent, 72 h
[12] = SW837 (KRAS G12C), enhancer + MEI-522 (Voruciclib), 72 h;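 on Best CI Level: inhibition effect level at which the best CI was calculated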
[13] = enhancer combined with MEI-522 (Voruciclib), SW837 (Colorectal), 72 hours, inhibition data
[14] = NCl-H358 (KRAS G12C), enhancer + MEI-522 (Voruciclib), 72 h
[15] = enhancer combined with MEI-522 (Voruciclib), NCl-H358 (Lung), 72 hours, inhibition data

What does the source list for CC[C@@H]1C(=O)N(C)c2cnc(Nc3ccc(C(=O)N[C@H]4CC[C@H](N5CCN(CC6CC6)CC5)CC4)cc3OC)nc2N1C(C)C [Volasertib]?
GI50 (Panc 04.03; Homo sapiens, Panc 04.03, 72 h): 4.6 nM; IC50 (Panc 04.03; Homo sapiens, Panc 04.03, 72 h): 5.9 nM; EC50 (Panc 04.03; Homo sapiens, Panc 04.03, 72 h, Additional Single Agent Responses (inhibition, % I), 72 h): 4.2 nM; EC50 (Panc 04.03; Homo sapiens, Panc 04.03, 72 h, growth inhibition (GI) curve, single agent, 72 h): 4.2 nM; Emax (Panc 04.03; Homo sapiens, Panc 04.03, 72 h, read-out: Max Response (% GI)): 87%; Emax (Panc 04.03; Homo sapiens, Panc 04.03, 72 h, read-out: Max Response (% I)): 64%; Best CI (Panc 04.03; [1]): 0.74; Bliss Volume (Panc 04.03; [1]): 4.14; HSA volume (Panc 04.03; [1]): 2.74; Loewe Volume (Panc 04.03; [1]): 1.36; Synergy Score (Panc 04.03; [1]): 7.71; Response Area (Panc 04.03; Additional Single Agent Responses (inhibition, % I), 72 h): 2.78; Response Area (Panc 04.03; growth inhibition (GI), AUC, single agent, 72 h): 3.75; Best CI (Panc 04.03; [2]): 0.67; Best CI Level (Panc 04.03; [2]): 80; Bliss Volume (Panc 04.03; [2]): −0.87; HSA volume (Panc 04.03; [2]): 1.03; Loewe Volume (Panc 04.03; [2]): 0.18; Synergy Score (Panc 04.03; [2]): 2.30; EC50 (Gp2D; 72 h, Colorectal, Additional Single Agent Responses (inhibition, % I)): 2.1 nM; EC50 (Gp2D; 72 h, Colorectal, growth inhibition (GI) curve, single agent): 2.5 nM; Best CI (Gp2D; [3]): 0.59; Bliss Volume (Gp2D; [3]): 9.40; HSA volume (Gp2D; [3]): 0.44; Loewe Volume (Gp2D; [3]): 1.73; Synergy Score (Gp2D; [3]): 15.26; IC50 (Gp2D; [4]): 2.4 nM; Response Area (Gp2D; [4]): 4.53; Emax (Gp2D; Gp2D, Colorectal, Additional Single Agent Responses, 72 h, read-out: Max Response (% I)): 91%; GI50 (Gp2D; Gp2D, Colorectal, growth inhibition (GI) curve, single agent, 72 h): 2.2 nM; Response Area (Gp2D; Gp2D, Colorectal, growth inhibition (GI), AUC, single agent, 72 h): 6.83; Emax (Gp2D; Gp2D, Colorectal, growth inhibition (GI), single agent, 72 h, read-out: Max Response (% GI)): 161%; Best CI (Gp2D; [5]): 0.16; Best CI Level (Gp2D; [5]): 80; Bliss Volume (Gp2D; [5]): −1.26; HSA volume (Gp2D; [5]): −0.27; Loewe Volume (Gp2D; [5]): −0.15; Synergy Score (Gp2D; [5]): 2.39; EC50 (SW48; [6]): 4.7 nM; EC50 (SW48; [7]): 4.9 nM; IC50 (SW48; [6]): 4.9 nM; Emax (SW48; Homo sapiens, SW48, Colorectal, Additional Single Agent Responses, 72 h, read-out: Max Response (% I)): 95%; GI50 (SW48; [7]): 4.6 nM; Emax (SW48; Homo sapiens, SW48, Colorectal, growth inhibition (GI), single agent, 72 h, read-out: Max Response (% GI)): 174%; Best CI (SW48; [8]): 0.11; Bliss Volume (SW48; [8]): 8.81; HSA volume (SW48; [8]): −0.59; Loewe Volume (SW48; [8]): 1.23; Synergy Score (SW48; [8]): 11.75; Response Area (SW48; SW48, Colorectal, Additional Single Agent Responses (inhibition, % I), 72 h): 4.47; Response Area (SW48; SW48, Colorectal, growth inhibition (GI), AUC, single agent, 72 h): 6.76; Best CI (SW48; [9]): 0.60; Bliss Volume (SW48; [9]): 0.08; HSA volume (SW48; [9]): 0.40; Loewe Volume (SW48; [9]): 0.43; Synergy Score (SW48; [9]): 1.83; Best CI Level (SW48; enhancer combined with MEI-522 (Voruciclib), SW48 (Colorectal), 72 hours, inhibition data, unit assumed): 20%; EC50 (SW837; [10]): 13.8 nM; EC50 (SW837; [11]): 20.1 nM; IC50 (SW837; [10]): 21 nM; Emax (SW837; Homo sapiens, SW837, Colorectal, Additional Single Agent Responses, 72 h, read-out: Max Response (% I)): 79%; GI50 (SW837; [11]): 14.8 nM; Emax (SW837; Homo sapiens, SW837, Colorectal, growth inhibition (GI), single agent, 72 h, read-out: Max Response (% GI)): 128%; Best CI (SW837; [12]): 0.72; Bliss Volume (SW837; [12]): 4.69; HSA volume (SW837; [12]): 2.14; Loewe Volume (SW837; [12]): 0.39; Synergy Score (SW837; [12]): 5.42; Response Area (SW837; SW837, Colorectal, Additional Single Agent Responses (inhibition, % I), 72 h): 3.61; Response Area (SW837; SW837, Colorectal, growth inhibition (GI), AUC, single agent, 72 h): 5.63; Best CI (SW837; [13]): 0.83; Best CI Level (SW837; [13]): 20; Bliss Volume (SW837; [13]): 0.17; HSA volume (SW837; [13]): 1.01; Loewe Volume (SW837; [13]): 0.29; Synergy Score (SW837; [13]): 1.39; EC50 (NCI-H358; Homo sapiens, NCl-H358, Lung, Additional Single Agent Responses (inhibition, % I), 72 h): 6.1 nM; EC50 (NCI-H358; Homo sapiens, NCl-H358, Lung, growth inhibition (GI) curve, single agent, 72 h): 6.1 nM; IC50 (NCI-H358; Homo sapiens, NCI-H358, NCl-H358, Lung, Additional Single Agent Responses (inhibition, % I), 72 h): 7.8 nM; Emax (NCI-H358; Homo sapiens, NCI-H358, NCl-H358, Lung, Additional Single Agent Responses, 72 h, read-out: Max Response (% I)): 75%; GI50 (NCI-H358; Homo sapiens, NCI-H358, NCl-H358, Lung, growth inhibition (GI) curve, single agent, 72 h): 6.5 nM; Emax (NCI-H358; Homo sapiens, NCI-H358, NCl-H358, Lung, growth inhibition (GI), single agent, 72 h, read-out: Max Response (% GI)): 100%; Bliss Volume (NCI-H358; [14]): −1.58; HSA volume (NCI-H358; [14]): −4.12; Loewe Volume (NCI-H358; [14]): −3.93; Synergy Score (NCI-H358; [14]): 3.21; Response Area (NCI-H358; NCl-H358, Lung, Additional Single Agent Responses (inhibition, % I), 72 h): 3.44; Response Area (NCI-H358; NCl-H358, Lung, growth inhibition (GI), AUC, single agent, 72 h): 4.57; Best CI (NCI-H358; [15]): 0.80; Best CI Level (NCI-H358; [15]): 20; Bliss Volume (NCI-H358; [15]): −4.08; HSA volume (NCI-H358; [15]): −3.08; Loewe Volume (NCI-H358; [15]): −3.28; Synergy Score (NCI-H358; [15]): 0.69
